Measured values from patent US12396458B2, “Fused ring substituted aromatic compound and preparation method therefor, herbicidal composition, and use thereof” (Qingdao Kingagroot Chemical Compound Co., Ltd., priority 2020, dated 2025).

Experiments:
Test in all cases: Weeding effect in post-emergence stage (greenhouse pot test)
Assay type in all cases: in vivo
Alopecurus japonicus = details: 3 weeks after application, fresh weight control rate
Description: (§1) The activity level criteria for plant damage (i.e., growth control rate) are as follows:
(§2) Level 5: growth control rate is above 85%; • Level 4: growth control rate is greater than or equal to 60% and less than 85%; • Level 3: growth control rate is greater than or equal to 40% and less than 60%; • Level 2: growth control rate is greater than or equal to 20% and less than 40%; • Level 1: growth control rate is greater than or equal to 5% and less than 20%; • Level 0: growth control rate is less than 5%.
(§3) The above growth control rates are fresh weight control rates.
(§4) Experiment on weeding effect in post-emergence stage:
(§5) Monocotyledonous and dicotyledonous weed seeds (Descurainia sophia, Capsella bursa-pastoris, Abutilon theophrasti, Galium aparine, Stellaria media, Lithospermum arvense, Rorippa indica, Alopecurus aequalis, Alopecurus japonicus, Eleusine indica, Beckmannia syzigachne, Sclerochloa dura, Phleum paniculatum, Veronica didyma Tenore, Bromus japonicus, Aegilops tauschii, Phalaris arundinacea, Amaranthus retrojlexus, Chenopodiaceae, Commelina communis, Sonchus arvensis, convolvulus arvensis, Cirsium setosum, Solanum nigrum, Acalypha australis, Digitaria sanguinalis, Echinochloa crusgalli, Setaria viridis, Setaria glauca, Leptochloa chinensis, Monochoria vaginalis, Sagittaria trifolia, Scirpus juncoides, Cyperus rotundus, Cyperus iria, Cyperus difformis, Fimbristylis, Portulaca oleracea, Xanthium sibiricum, Pharbitis nil, Conyza japonica, etc.) and major crop seeds (wheat, corn, rice, soybean, cotton, oilseed rape, millet, sorghum, potato, sesame, ricinus, etc.) were placed in plastic pots filled with soil, then covered with 0.5-2 cm of soil, allowed to grow in a good greenhouse environment. After 2 weeks of sowing, the test plants were treated in the 2-3 leaf stage. The tested compounds of the present invention were respectively dissolved in acetone, then added with Tween 80 and 1.5 liter/ha of emulsifiable concentrate of methyl oleate as synergist, diluted with a certain amount of water to obtain a solution with a certain concentration, and sprayed with a spray tower onto the plants. After the application, the plants were cultured for 3 weeks in the greenhouse, and then the experimental results of the weeding were counted. The doses of the used compounds were 500, 250, 125, 60, 15, 7.5 g a.i./ha, and the averages were obtained by repeating for three times.

Conyza japonica = details: post-emergence, 3 weeks after application, fresh weight control rate
Description: as §1, §2, §3, §4, §5

Capsella bursa-pastoris = details: 3 weeks after application, fresh weight control rate
Description: as §1, §2, §3, §4, §5

Beckmannia syzigachne = details: 3 weeks after application, fresh weight control rate
Description: as §1, §2, §3, §4, §5

SMILES | Activity level (growth control rate), Alopecurus japonicus (Alopecurus japonicus; dose 15 g a.i./ha) | Activity level (growth control rate), Conyza japonica (Conyza japonica; dose 15 g a.i./ha) | Activity level (growth control rate), Capsella bursa-pastoris (Capsella bursa-pastoris; dose 15 g a.i./ha) | Activity level (growth control rate), Beckmannia syzigachne (Beckmannia syzigachne; dose 15 g a.i./ha) | Activity level (growth control rate), Alopecurus japonicus (Alopecurus japonicus; dose 125 g a.i./ha) | Activity level (growth control rate), Conyza japonica (Conyza japonica; dose 125 g a.i./ha) | Activity level (growth control rate), Capsella bursa-pastoris (Capsella bursa-pastoris; dose 125 g a.i./ha) | Activity level (growth control rate), Beckmannia syzigachne (Beckmannia syzigachne; dose 125 g a.i./ha)
CC(C)=NOC(=O)C12CCCC1C(c1cc(-n3c(=O)n(C)c(=S)n(C)c3=O)c(F)cc1Cl)=NO2 (centres unmarked) [Compound 66] | 5 (Level 5: growth control rate is above 85%) | 4 (Level 4: growth control rate is greater than or equal to 60% and less than 85%) | 5 (Level 5: growth control rate is above 85%) | 4 (Level 4: growth control rate is greater than or equal to 60% and less than 85%) | – | – | – | –
COC(=O)C12CCCC1C(c1cc(-n3c(=O)cc(C(F)(F)F)n(C)c3=O)c(F)cc1Br)=NO2 (centres unmarked) [Compound 210] | 5 (Level 5: growth control rate is above 85%) | 5 (Level 5: growth control rate is above 85%) | 5 (Level 5: growth control rate is above 85%) | 5 (Level 5: growth control rate is above 85%) | – | – | – | –
Cn1c(C(F)(F)F)cc(=O)n(-c2cc(C3=NOC4(C(=O)O)CCCC34)c(Cl)cc2F)c1=O (centres unmarked) [Compound 213] | 5 (Level 5: growth control rate is above 85%) | 4 (Level 4: growth control rate is greater than or equal to 60% and less than 85%) | 5 (Level 5: growth control rate is above 85%) | 5 (Level 5: growth control rate is above 85%) | – | – | – | –
COC(=O)C12CCCC1C(c1cc(-n3c(=O)cc(C(F)(F)F)n(C)c3=O)c(F)cc1Cl)=NO2 (centres unmarked) [Compound 214] | 5 (Level 5: growth control rate is above 85%) | 5 (Level 5: growth control rate is above 85%) | 5 (Level 5: growth control rate is above 85%) | 5 (Level 5: growth control rate is above 85%) | – | – | – | –
CCOC(=O)C12CCCC1C(c1cc(-n3c(=O)cc(C(F)(F)F)n(C)c3=O)c(F)cc1Cl)=NO2 (centres unmarked) [Compound 215] | 5 (Level 5: growth control rate is above 85%) | 4 (Level 4: growth control rate is greater than or equal to 60% and less than 85%) | 5 (Level 5: growth control rate is above 85%) | 5 (Level 5: growth control rate is above 85%) | – | – | – | –
CCCOC(=O)C12CCCC1C(c1cc(-n3c(=O)cc(C(F)(F)F)n(C)c3=O)c(F)cc1Cl)=NO2 (centres unmarked) [Compound 216] | 5 (Level 5: growth control rate is above 85%) | 4 (Level 4: growth control rate is greater than or equal to 60% and less than 85%) | 5 (Level 5: growth control rate is above 85%) | 5 (Level 5: growth control rate is above 85%) | – | – | – | –
CC(C)OC(=O)C12CCCC1C(c1cc(-n3c(=O)cc(C(F)(F)F)n(C)c3=O)c(F)cc1Cl)=NO2 (centres unmarked) [Compound 217] | 5 (Level 5: growth control rate is above 85%) | 4 (Level 4: growth control rate is greater than or equal to 60% and less than 85%) | 5 (Level 5: growth control rate is above 85%) | 5 (Level 5: growth control rate is above 85%) | – | – | – | –
C=CCOC(=O)C12CCCC1C(c1cc(-n3c(=O)cc(C(F)(F)F)n(C)c3=O)c(F)cc1Cl)=NO2 (centres unmarked) [Compound 222] | 5 (Level 5: growth control rate is above 85%) | 4 (Level 4: growth control rate is greater than or equal to 60% and less than 85%) | 5 (Level 5: growth control rate is above 85%) | 5 (Level 5: growth control rate is above 85%) | – | – | – | –
C#CCOC(=O)C12CCCC1C(c1cc(-n3c(=O)cc(C(F)(F)F)n(C)c3=O)c(F)cc1Cl)=NO2 (centres unmarked) [Compound 225] | 5 (Level 5: growth control rate is above 85%) | 4 (Level 4: growth control rate is greater than or equal to 60% and less than 85%) | 5 (Level 5: growth control rate is above 85%) | 5 (Level 5: growth control rate is above 85%) | – | – | – | –
Cn1c(C(F)(F)F)cc(=O)n(-c2cc(C3=NOC4(C(=O)OCCF)CCCC34)c(Cl)cc2F)c1=O (centres unmarked) [Compound 231] | 5 (Level 5: growth control rate is above 85%) | 4 (Level 4: growth control rate is greater than or equal to 60% and less than 85%) | 5 (Level 5: growth control rate is above 85%) | 5 (Level 5: growth control rate is above 85%) | – | – | – | –
COCCOC(=O)C12CCCC1C(c1cc(-n3c(=O)cc(C(F)(F)F)n(C)c3=O)c(F)cc1Cl)=NO2 (centres unmarked) [Compound 245] | 5 (Level 5: growth control rate is above 85%) | 4 (Level 4: growth control rate is greater than or equal to 60% and less than 85%) | 5 (Level 5: growth control rate is above 85%) | 5 (Level 5: growth control rate is above 85%) | – | – | – | –
Cn1c(C(F)(F)F)cc(=O)n(-c2cc(C3=NOC4(C(=O)OCC5CCCO5)CCCC34)c(Cl)cc2F)c1=O (centres unmarked) [Compound 261] | 5 (Level 5: growth control rate is above 85%) | 4 (Level 4: growth control rate is greater than or equal to 60% and less than 85%) | 5 (Level 5: growth control rate is above 85%) | 5 (Level 5: growth control rate is above 85%) | – | – | – | –
CC(C)=NOC(=O)C12CCCC1C(c1cc(-n3c(=O)cc(C(F)(F)F)n(C)c3=O)c(F)cc1Cl)=NO2 (centres unmarked) [Compound 278] | 5 (Level 5: growth control rate is above 85%) | 4 (Level 4: growth control rate is greater than or equal to 60% and less than 85%) | 5 (Level 5: growth control rate is above 85%) | 5 (Level 5: growth control rate is above 85%) | – | – | – | –
Cc1cc(C)n(C(=O)C23CCCC2C(c2cc(-n4c(=O)cc(C(F)(F)F)n(C)c4=O)c(F)cc2Cl)=NO3)n1 (centres unmarked) [Compound 333] | 4 (Level 4: growth control rate is greater than or equal to 60% and less than 85%) | 4 (Level 4: growth control rate is greater than or equal to 60% and less than 85%) | 4 (Level 4: growth control rate is greater than or equal to 60% and less than 85%) | 4 (Level 4: growth control rate is greater than or equal to 60% and less than 85%) | – | – | – | –
COC(=O)C12CCOC1C(c1cc(-n3c(=O)cc(C(F)(F)F)n(C)c3=O)c(F)cc1Cl)=NO2 (centres unmarked) [Compound 372] | – | – | – | – | 4 (Level 4: growth control rate is greater than or equal to 60% and less than 85%) | 4 (Level 4: growth control rate is greater than or equal to 60% and less than 85%) | 5 (Level 5: growth control rate is above 85%) | 4 (Level 4: growth control rate is greater than or equal to 60% and less than 85%)
Cn1c(C(F)(F)F)cc(=O)n(-c2cc(C3=NOC4(C(=O)OCCCl)CCCC34)c(Cl)cc2F)c1=O (centres unmarked) [Compound 424] | 5 (Level 5: growth control rate is above 85%) | 5 (Level 5: growth control rate is above 85%) | 5 (Level 5: growth control rate is above 85%) | 5 (Level 5: growth control rate is above 85%) | – | – | – | –
CCOCOC(=O)C12CCCC1C(c1cc(-n3c(=O)cc(C(F)(F)F)n(C)c3=O)c(F)cc1Cl)=NO2 (centres unmarked) [Compound 425] | 5 (Level 5: growth control rate is above 85%) | 4 (Level 4: growth control rate is greater than or equal to 60% and less than 85%) | 5 (Level 5: growth control rate is above 85%) | 5 (Level 5: growth control rate is above 85%) | – | – | – | –
